# Test results reported in patent publication US8722580B2, “Agent for inhibiting cytokinin signaling” (Sumitomo Chemical Company, Limited, priority 2006, dated 2014).
# Assays:
# [1] = test system: Arabidopsis thaliana; experiment: Root growth-promoting activity test (Example 9); format: in vivo; conditions: main root length vs control section, 22° C., 10 days
# Procedure: (§1) Enshi standard medium having the following composition (see Table 10) was prepared. To cluster tubes was dispensed each 4 μl of a solution of a chemical substance in DMSO to a final concentration of 0.001 ppm to 10 ppm, and then, was dispensed each 600 μl of the sterilized Enshi standard medium. Then the resulting solution was well mixed. In each of the cluster tubes, 10-20 seeds of Arabidopsis thaliana were sown, and cultured at 22° C. for 10 days in the light. Then, the length of main roots (average main roots) generated from the seeds of Arabidopsis thaliana was measured. An average of eight repeats was determined, and a root growth rate was determined according to the following equation.
# (§2) Root growth rate (%)=(Average main root length in chemical substance-treated section)/(Average main root length in control section)×100
# [2] = test system: Arabidopsis thaliana; experiment: Root growth-promoting activity test (Example 22); format: in vivo; conditions: main root length vs control section, 22° C., 10 days
# Procedure: as §1, with “18)” for “10)”
# as §2
# Enshi standard medium determined having the following composition (Table 18) was prepared. A DMSO solution of a chemical substance was dispensed by 4 μl to cluster tubes to a final concentration of 0.001 ppm to 10 ppm and the sterilized Enshi standard medium was dispensed by 600 μl and then the resulting solution was well mixed. 10-20 seeds of A. thaliana per cluster tube were sown in the cluster tubes. After culture at 22° C. for 10 days in bright light, the length of main roots (average main roots) took from seeds of A. thaliana was measured. An average of eight repeats was determined and the root growth rate was determined.
# Root growth rate (%)=(Average main root length of chemical substance-treated section)/(Average main root length of control section)×100
# [3] = molecular target: T1, cytokinin receptor CRE1 (Arabidopsis thaliana, UniProt Q9C5U0, S567G/T1018A); experiment: Inhibition of intracellular signaling from plant-derived cytokinin receptor, growth of transformed yeast cell TM182-CRE1; format: cell-based; conditions: trans-zeatin 0.6 ppm, chemical substance 2 ppm; for Relative growth rate (%) in test section of test substance to control section, Transformed cell TM182-CRE1: 30° C., 24 hours, turbidity OD 600; for Activity (%) of test substance for inhibiting intracellular signaling from plant-derived cytokinin receptor of cell: = 100 − relative growth rate of TM182-CRE1
# T1 construct: expressed in transfected cells; host or cells: Saccharomyces cerevisiae TM182 (sln1Δ) transformed with p415CYC-CRE1
# Procedure: (§3) The transformed cell TM182-CRE1 and the transformed cell TM182-p415CYC1 obtained in Example 6 were each inoculated in 10 ml of a DOLU+Gal medium, and preincubated at 30° C. for 18 hours to obtain a preincubation liquid for each of the transformed cells. The preincubation liquid was diluted with a DOLU+Glu medium for the transformed cell TM182-CRE1 or with a DOLU+Gal medium for the transformed cell TM182-p415CYC1 until OD600=0.1 was reached, to obtain a preincubation dilution for each of the transformed cells.
# (§4) To each well of a 96-well plate was added 1 μl of a 200 ppm solution of a test substance in dimethyl sulfoxide (DMSO) to prepare an Assay plate. At the same time, as controls, only 1 μl of DMSO was added to a part of wells. An assay plate for the transformed cell TM182-CRE1 and an assay plate for the transformed cell TM182-p415CYC1 were prepared.
# (§5) A 10,000 ppm solution of trans-zeatin (cytokinin) in DMSO was 50-fold diluted with a DOLU+Gul medium to 200 ppm. The 200 ppm trans-zeatin solution was added in an amount of 3/1,000 volume to each of the above-described preincubation dilution to prepare each preincubation dilution containing trans-zeatin at 0.6 ppm. The 0.6 ppm preincubation dilution was added in an amount of 100 μl to each wells of the assay plate for each transformed cell. The plates were incubated at 30° C. for 24 hours. Then, turbidity (OD 600) of each well was measured by using a plate reader. The activity of the test substance for inhibiting intracellular signaling from a plant-derived cytokinin receptor of a cell was tested by comparing the measured turbidity with the turbidity of the control well.
# (§6) (Relative growth rate in test section to control section) [%]=[(Turbidity in test section)−(Turbidity in blank)]/[(Turbidity in control section)−(Turbidity in blank)]×100 (Activity of inhibiting intracellular signaling from plant-derived cytokinin receptor of cell) [%]=100−(Relative growth rate in test section to control section)
# (§7) In all cases, the existing concentration of trans-zeatin was adjusted to 0.6 ppm and the existing concentration of a chemical substance was adjusted to 2 ppm.
# (§8) In all cases, the existing concentration of trans-zeatin was adjusted to 0.6 ppm and the existing concentration of a chemical substance was adjusted to 2 […].
# [4] = test system: transformed cell TM182-p415CYC1; experiment: Control growth test with transformed yeast cell TM182-p415CYC1 (toxicity to yeast); format: cell-based; conditions: trans-zeatin 0.6 ppm; chemical substance 2 ppm; 30° C., 24 hours; turbidity OD 600
# Procedure: as §3, §4, §5, §6, §7, §8
# [5] = test final concentration 10 ppm (concentration with highest root growth rate)
# [6] = test final concentration 10 ppm (highest root growth rate)
# [7] = test final concentration 2.5 ppm (concentration with highest root growth rate)
# [8] = test final concentration 2.5 ppm (highest root growth rate)
# T1 sequence (Q9C5U0 24-1080 S567G/T1018A): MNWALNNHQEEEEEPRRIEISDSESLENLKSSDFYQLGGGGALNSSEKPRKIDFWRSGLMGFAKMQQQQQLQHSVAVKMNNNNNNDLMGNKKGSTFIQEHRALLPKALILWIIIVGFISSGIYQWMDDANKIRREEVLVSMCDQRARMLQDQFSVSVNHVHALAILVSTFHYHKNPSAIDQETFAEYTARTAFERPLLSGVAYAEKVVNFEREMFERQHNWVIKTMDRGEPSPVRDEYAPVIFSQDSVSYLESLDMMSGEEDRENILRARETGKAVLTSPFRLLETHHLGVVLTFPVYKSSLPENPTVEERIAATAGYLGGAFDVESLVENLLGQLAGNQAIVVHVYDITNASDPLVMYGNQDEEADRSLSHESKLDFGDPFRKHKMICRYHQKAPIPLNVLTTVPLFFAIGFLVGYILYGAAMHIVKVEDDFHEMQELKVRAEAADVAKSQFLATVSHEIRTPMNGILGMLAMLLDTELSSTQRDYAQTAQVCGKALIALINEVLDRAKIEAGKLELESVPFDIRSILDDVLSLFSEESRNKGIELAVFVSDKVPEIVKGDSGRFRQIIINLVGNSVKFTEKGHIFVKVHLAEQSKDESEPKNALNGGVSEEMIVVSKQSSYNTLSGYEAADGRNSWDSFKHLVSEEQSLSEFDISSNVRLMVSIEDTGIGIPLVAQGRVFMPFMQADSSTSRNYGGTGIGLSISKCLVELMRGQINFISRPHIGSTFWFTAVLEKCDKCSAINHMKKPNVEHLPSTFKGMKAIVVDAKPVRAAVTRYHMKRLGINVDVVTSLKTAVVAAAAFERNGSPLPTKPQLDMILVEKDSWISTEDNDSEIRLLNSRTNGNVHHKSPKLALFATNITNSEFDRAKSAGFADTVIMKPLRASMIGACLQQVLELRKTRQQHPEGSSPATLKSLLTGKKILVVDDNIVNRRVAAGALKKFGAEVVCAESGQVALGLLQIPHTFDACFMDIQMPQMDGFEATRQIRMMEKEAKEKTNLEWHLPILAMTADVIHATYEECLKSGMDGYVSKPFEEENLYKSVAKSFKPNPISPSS
SMILES,"Root growth-promoting activity (root growth rate) [1, 5] [%]","Root growth-promoting activity (root growth rate) [2, 6] [%]","Root growth-promoting activity (root growth rate) [1, 7] [%]","Root growth-promoting activity (root growth rate) [2, 8] [%]","Relative growth rate (%) in test section of test substance to control section, Transformed cell TM182-CRE1 [3] [%]",Activity (%) of test substance for inhibiting intracellular signaling from plant-derived cytokinin receptor of cell [3] [%],"Relative growth rate (%) in test section of test substance to control section, Transformed cell TM182-p415CYC1 [4] [%]",Root growth-promoting activity (root growth rate) ([1]; test final concentration 1.25 ppm (concentration with highest root growth rate)) [%]
N#Cc1ccc2nc(NCCCO)nc(-c3ccccc3)c2c1 [Ic9-1],141.5,141.5,,,,,,
Clc1cc(Cl)c2nc(NCc3ccco3)nc(-c3ccccc3)c2c1 [Ic12-3],,,138.8,138.8,,,,
CN(C)c1nc(-c2ccccc2)c2cc(Cl)ccc2n1 [Ic3-25],140.0,,,,6.0,94.0,122.0,
Nc1nc(-c2ccccc2)c2cc(Cl)ccc2n1 [Ic3-19],,,,,2.4,97.6,102.7,155.6
CN(C)CCNc1nc(-c2ccccc2)c2cc(Cl)ccc2n1 [Ic3-21],,,131.7,,5.0,95.0,121.6,
CC(C)Nc1nc(-c2ccccc2)c2cc(Cl)ccc2n1 [Ic3-28],120.4,120.4,,,,,,
Cc1ccc2nc(NCCCO)nc(-c3ccccc3)c2c1 [Ic5-5],,,157.8,,7.2,92.8,126.3,
CNc1nc(-c2ccccc2)c2cc(Cl)ccc2n1 [Ic3-23],150.0,,,,4.1,95.9,108.1,
OCCCNc1nc(-c2ccccc2)c2ccc(Cl)cc2n1 [Ic10-1],163.6,163.6,,,,,,
OCCCNc1nc(-c2ccccc2)c2cc(F)ccc2n1 [Ic2-1],,,127.4,,2.8,97.2,124.6,
OCCCNc1nc(-c2ccccc2)c2c(Cl)cccc2n1 [Ic1-1],,,150.9,150.9,,,,
NNc1nc(-c2ccccc2)c2cc(Cl)ccc2n1 [Ic3-20],137.8,,,,5.0,95.0,86.5,
